In patent publication US20090192137A1, “Dialysis method” (AstraZeneca AB, priority 1993, published 2009):

Columns and labels:
[1] = Pig study: clearance of iohexol to monitor filter clearance; assay type: in vivo; conditions: Swedish Land Race, plasma and dialysing solution, intravenous, 6000 mg, dialysis filter clearance, measured every half-hour, two experiments
Protocol: (§1) Before connection of the efferent and afferent blood lines, 20 mL (300 mg/mL) of iohexol (Omnipaque®, Nycomed AB, Lidingö, Sweden) was administered in the ear vein to monitor filter clearance. Two minutes before the start of dialysis, 0.15 μmol/kg of melagatran was given via the right femoral vein as a bolus.
Amounts of iohexol in plasma and dialysing solution were determined at the Laboratory of the Division of Nephrology (Sahlgren's University Hospital, Gothenberg, Sweden) using a Reanalyzer PRX 90 (Provalid AB Lund, Sweden).

[2] = tested on: anaesthetised pigs without kidney function; experiment: Pig study: prevention of coagulation and maintained filter function during haemodialysis; assay type: in vivo
Source text: The aim of this study was to test whether melagatran, given via the dialysing solution during dialysis could prevent coagulation and allow a maintained filter function throughout the session in acute experiments with anaesthetised pigs without kidney function.
To avoid very early thrombotic occlusion of blood lines and filters, which, if observed, would have prevented the drawing of meaningful conclusions regarding the utility of the method, an i.v. bolus dose of melagatran was given immediately before the start of extracorporeal blood circulation in these experiments.
(§2) The anaesthetised pigs were subjected to bilateral ligation of renal arteries and veins using lateral flank approaches. The wounds were then closed and the animals were placed on their backs. Two catheters (Kimal, K41/3B/LL, Uxbridge, England) were inserted into the right femoral artery and vein for connection to the dialysis equipment. The artery catheter was used to provide blood to (efferent blood line), and the vein catheter to receive blood from (afferent blood line), the dialysis filter. One polyethylene catheter (Intramedic PE-200, Clay Adams, Parsippany, N.J., USA) was inserted into an artery (right saphenous in pig A and brachial in pig B) for blood pressure (MAP) recording (transducer Peter von Berg Medizintechnik GmbH, Kirchseeon/Eglharting, Germany) and for blood samples, pH and blood gas measurements.
Before the start of dialysis, the LunDia Pro 600 dialysis filter (Gambro, Lund, Sweden) was primed on both sides for 15 minutes with Biosol A201.5 glucose (Pharmalink, Solna, Sweden) dialysis concentrate diluted 1:35 using a Gambro AK-100 (Grambro. Lund, Sweden) haemodialysis equipment (see FIG. 5). The dialysis concentrate was supplemented with melagatran (35 μM; thus providing 1 μM after dilution). The flow rate was adjusted to 500 mL/min on the dialysing solution side and to 250 mL/min on the blood side of the membrane by separate pumps. Pressure was measured (transducer Peter von Berg Medizintechnik) on both sides of the dialysis membrane. […]

[3] = target: T1, thrombin (Sus scrofa, UniProt Q19AZ8); conditions: TAS equipment, during dialysis session
Protocol: For the determination of activated partial thromboplastin time (APTT), ecarin clotting time (ECT) and the amount of melagatran in plasma, twelve aliquots of blood were drawn at specific time points into plastic tubes containing one volume of 0.13 M sodium citrate. Plasma was recovered after immediate centrifugation (10,000 g for 5 minutes) and stored at −20° C. prior to analysis. For the determination of the amount of iohexol in plasma, blood was drawn in heparinized tubes, centrifuged is (10,000 g for 5 minutes) and stored at −20° C. prior to analysis.
ECT was determined in 30 μL citrate plasma using a TAS device (Thrombolytic Assessment System, Cardiovascular Diagnostics Inc., Raleigh, N.C.) and appropriate solid reagent test cards, as recommended.

[4] = Pig study: concentration of melagatran in plasma and dialysis outlet during dialysis; assay type: in vivo
Protocol: Two Swedish Land Race pigs weighing 59 and 57 kg respectively were used. Anaesthesia was induced using Ketaminol® (10 mg/kg, i.m. Veterinaria AG, Switzerland) and Dormicum® (1 to 2 mg/kg, i.m. Roche, Basel, Switzerland), followed by, after 20 minutes, Diprivan® ([…] i.v. Zeneca Limited, Macclesfield, Cheshire, United Kingdom), intubated and ventilated at 15 cycles/minute with air containing 2 to 3% Forene® (Abbott Scandinavia AB, Kista. Sweden) using a Servo Ventilator 900C (Siemens Elema, Solna, Sweden).
as §2
Before the start of dialysis, the LunDia Pro 600 dialysis filter (Gambro, Lund, Sweden) was primed on both sides for 15 minutes with Biosol A201.5 glucose (Pharmalink, Solna, Sweden) dialysis concentrate diluted 1:35 using a Gambro AK-100 (Grambro. Lund, Sweden) haemodialysis equipment (see FIG. 5). The dialysis concentrate was supplemented with melagatran (35 μM; thus providing 1 μM after dilution). The flow rate was adjusted to 500 mL/min on the dialysing solution side and to 250 mL/min on the blood side of the membrane by separate pumps. Pressure was measured (transducer Peter von Berg Medizintechnik) on both sides of the dialysis membrane.
as §1
After connection of blood lines and two minutes after the administration of the melagatran bolus dose, dialysis was started and carried out for 3 hours. Then, the procedure was interrupted, the blood lines disconnected and the filter and blood lines washed by pumping saline instead of blood to check for the presence of macroscopic blood clots.
The amount of melagatran in plasma was quantified using liquid chromatographic and mass spectrometric methods (BA-285, AstraZeneca R&D, Mölndal, Sweden).

[5] = target: T1, thrombin; conditions: during dialysis session
Protocol: For the determination of activated partial thromboplastin time (APTT), ecarin clotting time (ECT) and the amount of melagatran in plasma, twelve aliquots of blood were drawn at specific time points into plastic tubes containing one volume of 0.13 M sodium citrate. Plasma was recovered after immediate centrifugation (10,000 g for 5 minutes) and stored at −20° C. prior to analysis.
APTT was determined using a KC10 A micro coagulometer (Amelung, Lemago, Germany). 25 μL of citrate plasma was incubated with 25 μL of PTT-Automate reagent (Diagnostica Stago, Asnieres, France) for 3 minutes. Coagulation was started using 25 μL of 0.025 M CaCl2 (Diagnostica Stago, Asniéres. France) and the time taken to the start of coagulation was measured.

| Structure (SMILES) | clearance [1] | macroscopic thrombi in filters and tubing after dialysis ([2]; 3 hour dialysis, both pigs, washed with saline over 15 minutes) | filter function ([2]; judged from iohexol clearance, 3 hours of dialysis) | pressure in the efferent blood-line ([2]; one pig, 3 hour dialysis, stable) | ecarin clotting times (ECT), relation to drug concentration in plasma [3] | concentration at 2 min ([4]; Swedish Land Race, pig, plasma, iv, 0.15 μmol/kg, start of dialysis, 2 minutes after i.v. bolus dose, both pigs, read-out: concentration of melagatran in plasma (efferent blood)) | time to equilibration ([4]; acutely anuric pig) | concentration of melagatran in the dialysis outlet, higher than on the blood side ([4]; except the very first sample at the start of dialysis) | concentration of melagatran in plasma, level-off ([4]; over the first ˜0 minutes of dialysis, then quite constant, dialysing solution 1 μM expected) | APTT times, relation to melagatran concentration [5] |
| --- | --- | --- | --- | --- | --- | --- | --- | --- | --- | --- |
| CC(=O)N(CC(O)CO)c1c(I)c(C(=O)NCC(O)CO)c(I)c(C(=O)NCC(O)CO)c1I (stereo not shown) [iohexol] | ~150 mL/min |  |  |  |  |  |  |  |  |  |
| N=C(N)c1ccc(CNC(=O)[C@@H]2CCN2C(=O)[C@H](NCC(=O)O)C2CCCCC2)cc1 [melagatran, HOOC—CH2—(R)Cgl-Aze-Pab-H] |  | macroscopic thrombi had not been formed | filter function was maintained over the full 3 hours of dialysis | about 275 mm Hg | closely reflected drug concentrations in plasma | 900 to 1000 nM | within one hour | about 0.2 μM | about 0.25 μM | proportional to the logarithm of melagatran concentration |
